Laboratory results as given in publication PMC10111022, “Comparison of pharmacological inhibitors of lysine-specific demethylase 1 in glioblastoma stem cells reveals inhibitor-specific efficacy profiles” (Frontiers in Neurology, 2023).

Experiments:
MDA-GSC 311 = assay: Cell viability dose response (IC50), MDA-GSC 311; type: cell-based; settings: Homo sapiens, mean of three independent experiments
Method: (§1) MDA-GSCs were plated at 50,000 cells/well into 12-well plates at and allowed to grow for 5 days until neurospheres were formed. The cells were then treated with either TCP, GSK-LSD1, or RN-1 at various concentrations for 5 days. Next, the cells were collected and neurospheres were dissociated with Accutase (BioLegend; San Diego, CA). Cell viability was determined using a trypan dye exclusion assay and read with the Vi-Cell XR Cell Viability Analyzer (Beckman Coulter; Brea, CA). NHAs were plated at 50,000 cells/well into 12-well plates and allowed to adhere overnight. The following day, NHAs were treated with the LSD1 inhibitors. After 5 days, the cells were detached using TrypLE and assessed with the trypan blue dye exclusion assay.
(§2) The alamarBlue cell viability (Bio-Rad; Hercules, CA) was performed on the MDA-GSCs according to the manufacturer’s protocol. The cells were plated at 5,000 cell/well into a 96-well plate and allowed to grow for 5 days. After 5 days, the alamarBlue reagent was added and fluorescence was measured with the Synergy 2 (BioTek Instruments; Winooski, VT) plate reader according to the manufacturer’s protocol.

[1] = Complete blood count at day 50 in xenograft mice; type: in vivo, athymic nude mice
Method: (§3) Once confirmation of intracranial tumor engraftment at 7 days post-engraftment, the mice were equally randomized into groups to receive either GSK-LSD1 or the vehicle control. The mice received GSK-LSD1 1 mg/kg diluted in DMSO and PBS (5 and 95%, respectively) via intraperitoneal injection (200 μL/mouse) while the control mice received the untreated vehicle in parallel. In accordance with the approved IACUC protocol (No: 638-RN03) at MD Anderson Cancer Center, treatment continued until the mice succumbed to tumor burden and were found in a moribund condition as determined by neurological impairment (hydrocephalus, seizures, inactivity, and/or ataxia) or morbidity (hunched posture or weight loss). At this time mice were euthanized by both carbon dioxide exposure and cervical dislocation. Flow cytometric characterization of immune cell subsets was carried out in blood samples obtained from mice (four control mice and six GSK-LSD1 mice) in each group at day 50 via cardiac puncture and the sample was processed using Ficoll (GE Healthcare; Chicago, IL) centrifugation to collect the peripheral blood mononuclear cells (PBMCs). Next, PBMCs were stained with the Ghost Dye Violet (Tonbo; San Diego, CA) and then incubated with antibodies at 4°C for 25 min before analysis. The antibodies anti-NKG2D APC (Biolegend #320807), CD16-PE-Cy7 (ThermoFisher #25–0168-42), CD56-PE (BD Biosciences #345812), anti-CD3-FITC (Biolegend; #100305), CD4-PerCP (ThermoFisher #MHCD0431), anti-CD8-ACP-Cy7 (Biolegend #344713), and anti-SLAMF7-PE (eBioscience #12–2,229-42) were used in concentrations recommended per manufacturer’s instruction. Samples were washed and resuspended in FACS buffer for analysis on a Fortessa flow cytometer (BD Biosciences; Haryana, India).
Given the effect on tumor regression required almost 2 months of treatment, we sought to determine if any hematological toxicities were present from the prolonged exposure to LSD1 inhibition. At day 50, a subset of mice from each group were sacrificed and blood was collected for evaluation with a Complete Blood Count (CBC) to compare different populations of blood cells. […] However, the platelet count in the GSK-LSD1 receiving mice is higher compared to the control and may be secondary to the underlying tumor burden (Figure 5F). The WBC differential further confirmed the absence of hematological toxicity with no difference between the GSK-LSD1 and the control group in any of the individual cell types (Figure 5G). […] In parallel, the peripheral blood mononuclear cells (PBMCs) were also isolated and probed to assess the effect of GSK-LSD1. Prior studies of LSD1 inhibition via pharmacological inhibitors prompted the assessment of GSK-LSD1 effect on different subpopulations of natural killer (NK) cells and T-cells ([26], [30]).

MDA-GSC7-2 = assay: qPCR of resistance-related genes, MDA-GSC7-2; type: cell-based, Human; settings: MDA-GSC7-2 (sensitive)
Method: (§4) Total RNA was extracted using RNeasy Plus Mini Kit (Qiagen; Hilden, Germany) following the manufacturer’s protocol. cDNA was synthesized with the iScript cDNA synthesis kit (Bio-Rad; Hercules, CA), qPCR was performed using Forget-Me-Not EvaGreen qPCR kit (Biotium; Fremont, CA), and samples were analyzed with the LightCycler96 (Roche; Basel, Switzerland). Cq values were normalized to PPIA and reported as relative fold change from untreated control.

NK or T-cells = assay: Flow cytometry of peripheral blood NK and T-cell subsets at day 50; type: in vivo, athymic nude mice; settings: peripheral blood mononuclear cells
Method: as §3, with “The antibodies anti-NKG2D APC (Biolegend #320807), CD16-PE-Cy7 (ThermoFisher #25–0168-42), CD56-PE (BD Biosciences #345812), anti-CD3-FITC (Biolegend; #100305), CD4-PerCP (ThermoFisher #MHCD0431), anti-CD8-ACP-Cy7 (Biolegend #344713), and anti-SLAMF7-PE (eBioscience #12–2,229-42) were used in concentrations recommended per manufacturer’s instruction. Samples were washed and resuspended in FACS buffer for analysis on a Fortessa flow cytometer (BD Biosciences; Haryana, India).” left out

[2] = tested on: MDA-GSC311, MDA-GSC20, MDA-GSC23, MDA-GSC8-11; assay: Colony (neurosphere) formation assay; type: cell-based, Human; settings: three of the four cell lines; 200-400 μM, 3 weeks
Method: Colony formation assay was performed on MDA-GSC 311, MDA-GSC 20, MDA-GSC 23, and MDA-GSC 8–11. Cells were plated in triplicate into clear, flat-bottom 96-well plates at 3 cells/well into 100 μL of media. MDA-GSCs were treated with 100 μL of GSK-LSD1 and allowed to grow for 3 weeks at 37°C before scoring. The final concentration of GSK-LSD1 in each well was determined using the IC50 in each cell line (MDA-GSC 311 at 200 μM, MDA-GSC 20 at 300 μM, MDA-GSC 23 at 200 μM, MDA-GSC 8–11 at 400 μM). Clonogenicity was scored using the Cell3iMager (Screen Life Science; Elk Grove Village, IL) to count the number of wells with colony formation as positive and wells without colony formation as negative.

MDA-GSC20 = assay: qPCR of resistance-related genes, MDA-GSC20; type: cell-based, Human; settings: MDA-GSC20 (resistant)
Method: as §4

MDA-GSC lines = assay: Cell viability across the panel of nine MDA-GSC lines; type: cell-based, Human; settings: many/several MDA-GSC lines, dose response curves Figure 2
Method: as §1, §2

MDA-GSC 20 = assay: Cell viability dose response (IC50), MDA-GSC 20; type: cell-based; settings: Homo sapiens, mean of three independent experiments
Method: as §1, §2

MDA-GSC8-11 = assay: qPCR of resistance-related genes, MDA-GSC8-11; type: cell-based, Human; settings: MDA-GSC8-11 (resistant)
Method: as §4

MDA-GSC 17 = assay: Cell viability dose response (IC50), MDA-GSC 17; type: cell-based; settings: Homo sapiens, mean of three independent experiments
Method: as §1, §2

MDA-GSC 7–2 = assay: Cell viability dose response (IC50), MDA-GSC 7–2; type: cell-based; settings: Homo sapiens, mean of three independent experiments
Method: as §1, §2

MDA-GSC 6–27 = assay: Cell viability dose response (IC50), MDA-GSC 6–27; type: cell-based; settings: Homo sapiens, mean of three independent experiments
Method: as §1, §2

SMILES: c1ccc([C@@H]2C[C@H]2NC2CCNCC2)cc1 [GSK-LSD1]
- IC50 (MDA-GSC 311): > 750 µM
- leukopenia or erythropenia (CBC) ([1]; day 50, 1 mg/kg intraperitoneal, vs untreated mice): no evidence of leukopenia or erythropenia
- platelet count ([1]; day 50, compared to the control): higher
- WBC differential, individual cell types ([1]; day 50, vs control group): no difference
- RBC indices ([1]; day 50, except for red cell distribution width (RDW)): largely demonstrate no effect
- expression of resistance-related genes (FTH1, RAB39B, HKDC1, FAM213A) (MDA-GSC7-2): inappreciable effects
- cytotoxic effects on NK or T-cells (NK or T-cells): does not have cytotoxic effects
- capacity to form neurospheres from single cells [2]: reduced capacity to form neurospheres
- expression of resistance-related genes (FTH1, RAB39B, HKDC1, FAM213A) (MDA-GSC20): increase in all four genes
- concentrations at which MDA-GSC viability was reduced (MDA-GSC lines): 250 to 750 µM
- IC50 (MDA-GSC 20): > 750 µM
- expression of resistance-related genes (MDA-GSC8-11): increase in the same two gene
- IC50 (MDA-GSC 17): 253 µM
- IC50 (MDA-GSC 7–2): 518 µM
- IC50 (MDA-GSC 6–27): 598 µM
